Experimental data: patent publication US10941157B2, “Pesticidal compositions and uses thereof” (Gilead Apollo, LLC, priority 2015, dated 2021)
≈ marks a conversion by molar mass, not a printed value.

Assays:
[1] = test system: Botrtyis cinerea (Bc); assay: In vitro pathogen growth inhibition assay, Bc; format: cell-based; settings: 48 h, ≥90% growth inhibition; 48 hours; vs 2% DMSO control; read-out: Compound Concentration (ppm) sufficient for ≥90% inhibition of Bc
In short: (§1)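 Spores in 17% V8 liquid medium, or 1.5 mm Rs mycelial plugs in ¼ PDB, incubated with compound; final concentration checked by OD600 for precipitation. OD readings at 24 and 48 h, blank-subtracted, plus visual ratings; value is concentration giving ≥90% growth inhibition.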

[2] = test system: Collectotrichum graminicola (Cg); assay: In vitro pathogen growth inhibition assay, Cg; format: cell-based; settings: 48 h, ≥90% growth inhibition; 48 hours; vs 2% DMSO control; read-out: Compound Concentration (ppm) sufficient for ≥90% inhibition of Cg
In short: as §1

[3] = test system: Diplodia maydis (Dm); assay: In vitro pathogen growth inhibition assay, Dm; format: cell-based; settings: Stenocarpella maydis, 48 h, ≥90% growth inhibition; 48 hours; vs 2% DMSO control; read-out: Compound Concentration (ppm) sufficient for ≥90% inhibition of Dm
In short: (§2)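 Value reported is the compound concentration reaching ≥90% growth inhibition, from OD readings at 24 and 48 h after blank subtraction, confirmed visually. Inoculum was spores diluted in 17% V8 medium, except Rs, using 1.5 mm mycelial plugs in ¼ PDB; actual compound concentration corrected via OD600.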

[4] = test system: Fusarium moniliforme (Fm); assay: In vitro pathogen growth inhibition assay, Fm; format: cell-based; settings: Fusarium verticillioides; ≥90% growth inhibition; 48 hours; vs 2% DMSO control; read-out: Compound Concentration (ppm) sufficient for ≥90% inhibition of Fm
In short: as §1

[5] = test system: Fusarium virguliforme (Fv); assay: In vitro pathogen growth inhibition assay, Fv; format: cell-based; settings: ≥90% growth inhibition, 48 hours, vs 2% DMSO control, read-out: Compound Concentration (ppm) sufficient for ≥90% inhibition of Fv
In short: as §2

[6] = test system: Phytophthora capsici (Pc); assay: In vitro pathogen growth inhibition assay, Pc; format: cell-based; settings: 48 h, ≥90% growth inhibition, 48 hours, vs 2% DMSO control, read-out: Compound Concentration (ppm) sufficient for ≥90% inhibition of Pc
In short: as §2

[7] = test system: Rhizoctonia solani (Rs); assay: In vitro pathogen growth inhibition assay, Rs (mycelial plugs); format: cell-based; settings: Rhizoctonia solani, 48 h, ≥90% growth inhibition; mycelial plugs; 48 hours; vs 2% DMSO control; read-out: Compound Concentration (ppm) sufficient for ≥90% inhibition of Rs
In short: as §2

[8] = test system: Septoria tritici (St); assay: In vitro pathogen growth inhibition assay, St; format: cell-based; settings: Zymoseptoria tritici, 48 h, ≥90% growth inhibition; 48 hours; vs 2% DMSO control; read-out: Compound Concentration (ppm) sufficient for ≥90% inhibition of St
In short: as §1

[9] = test system: Blumeria graminis f. sp. hordei; assay: Foliar protection test for barley powdery mildew control; format: in vivo; settings: foliar spray on Hordeum vulgare cv. Perry, inoculated 24 hours after treatment, evaluated 7 days later
In short: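 Six-day-old barley (cv. Perry) sprayed to wetness on both leaf sides; 24 h later inoculated by shaking spores from infected stock plants. Kept at 20 to 22° C, 70% relative humidity; mildew colonization assessed 7 days later.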

[10] = test system: Sphaerotheca fuliginea; assay: Foliar protection for cucumber powdery mildew control; format: in vivo; settings: foliar spray on Cucumis sativus cv. Straight Eight, inoculated 24 hours after treatment, evaluated 7 days later
In short: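 Cucumber plants (cv. Straight Eight, 10 days old) sprayed to wetness on both leaf surfaces, then inoculated 24 h later by shaking sporulating stock plants over them. Held at 23–27 °C, 16 h light, 60% RH. Mildew colonization scored 7 days after inoculation, at compound concentrations of 10 ppm or lower.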

[11] = test system: Mycosphaerella graminicola (synthetic Septoria tritici); assay: Foliar protection test for wheat septoria leaf blotch control; format: in vivo; settings: foliar spray on Triticum aestivum cv. WinterHawk, inoculated 1 hour after treatment, evaluated 16 days later
[12] = test system: Fusarium graminearum; format: in vivo; settings: spray on flowering Triticum aestivum cv. Samson, inoculated 24 hours after treatment, evaluated 14 days later
[13] = test system: Puccinia triticina; assay: Foliar protection test for wheat leaf rust control; format: in vivo; settings: foliar application to wheat (Triticum aestivum cv. Winterhawk), evaluated 10 days later
[14] = test system: Phakopsora pachyrhizi; assay: Foliar protection test for Asian soybean rust control; format: in vivo; settings: foliar application to soybean (Glycine max AG4832), percent disease area evaluated 14 days later

SMILES	IC90 [1]	IC90 [2]	IC90 [3]	IC90 [4]	IC90 [5]	IC90 [6]	IC90 [7]	IC90 [8]	Barley Powdery Mildew Control at a compound concentration of 10 ppm or lower [9]	Cucumber Powdery Mildew Control at a compound concentration of 10 ppm or lower [10]	Septoria Leaf Blotch Control at a compound concentration of 25 ppm or lower [11]	Wheat Fusarium Head Blight Control at a compound concentration of 25 ppm or lower [12]	Wheat Leaf Rust Control at a compound concentration of 10 ppm or lower [13]	Asian Soybean Rust Control at a compound concentration of 25 ppm or lower [14]
CCOC(=O)c1sc2c(c1C)c(=O)n(C(C)(C)C(=O)NC(C)C)c(=O)n2C[C@H](O)c1cc(F)ccc1OC [Compound I-186, (R)-ethyl-1-(2-(5-fluoro-2-methoxyphenyl)-2-hydroxyethyl)-3-(1-(isopropylamino)-2-methyl-1-oxopropan-2-yl)-5-methyl-2,4-dioxo-1,2,3,4-tetrahydrothieno[2,3-d]pyrimidine-6-carboxylate]	0.4 µg/mL (≈ 0.728 µM)	2 µg/mL (≈ 3.64 µM)	2 µg/mL (≈ 3.64 µM)	0.08 µg/mL (≈ 0.146 µM)	0.08 µg/mL (≈ 0.146 µM)	> 50 µg/mL	0.4 µg/mL (≈ 0.728 µM)	> 50 µg/mL	A (from 70% to 84% control of barley powdery mildew)	C (from 25 to 49% control of cucumber powdery mildew)	D (<25% control of wheat septoria leaf blotch)	B (from 50 to 69% control of wheat fusarium head blight)	C (from 25 to 49% control of wheat leaf rust)	D (<25% control of Asian soybean rust)
COc1ccc(F)cc1[C@@H](O)Cn1c(=O)n([C@H](C)C(=O)N(C)C(C)C)c(=O)c2c(C)c(-n3nccn3)sc21 [Compound I-188, (R)-2-(1-((R)-2-(5-fluoro-2-methoxyphenyl)-2-hydroxyethyl)-5-methyl-2,4-dioxo-6-(2H-1,2,3-triazol-2-yl)-1,4-dihydrothieno[2,3-d]pyrimidin-3 (2H)-yl)-N-isopropyl-N-methylpropanamide]	0.4 µg/mL (≈ 0.734 µM)	2 µg/mL (≈ 3.67 µM)	2 µg/mL (≈ 3.67 µM)	0.08 µg/mL (≈ 0.147 µM)	0.4 µg/mL (≈ 0.734 µM)	> 50 µg/mL	0.4 µg/mL (≈ 0.734 µM)	> 50 µg/mL	AA (≥85% control of barley powdery mildew)	AA (≥85% control of cucumber powdery mildew)	C (from 25 to 49% control of wheat septoria leaf blotch)	D (<25% control of wheat fusarium head blight)	AA (≥85% control of wheat leaf rust)	B (from 50 to 69% control of Asian soybean rust)
COc1ccc(F)cc1[C@@H](O)Cn1c(=O)n([C@@H](C)C(=O)N(C)C(C)C)c(=O)c2c(C)c(-n3nccn3)sc21 [Compound I-189, (S)-2-(1-((R)-2-(5-fluoro-2-methoxyphenyl)-2-hydroxyethyl)-5-methyl-2,4-dioxo-6-(2H-1,2,3-triazol-2-yl)-1,4-dihydrothieno[2,3-d]pyrimidin-3 (2H)-yl)-N-isopropyl-N-methylpropanamide]	0.4 µg/mL (≈ 0.734 µM)	0.4 µg/mL (≈ 0.734 µM)	0.4 µg/mL (≈ 0.734 µM)	0.08 µg/mL (≈ 0.147 µM)	0.4 µg/mL (≈ 0.734 µM)	> 50 µg/mL	0.08 µg/mL (≈ 0.147 µM)	50 µg/mL (≈ 91.8 µM)	AA (≥85% control of barley powdery mildew)	AA (≥85% control of cucumber powdery mildew)	A (from 70% to 84% control of wheat septoria leaf blotch)	C (from 25 to 49% control of wheat fusarium head blight)	AA (≥85% control of wheat leaf rust)	A (from 70% to 84% control of Asian soybean rust)
COc1ccccc1[C@H](Cn1c(=O)n(C(C)(C)C(=O)NC(C)C)c(=O)c2c(C)c(-n3cccn3)sc21)OCCC#N [Compound I-192, (R)-2-(1-(2-(2-cyanoethoxy)-2-(2-methoxyphenyl)ethyl)-5-methyl-2,4-dioxo-6-(1H-pyrazol-1-yl)-1,4-dihydrothieno[2,3-d]pyrimidin-3 (2H)-yl)-N-isopropyl-2-methylpropanamide]	0.4 µg/mL (≈ 0.691 µM)	≥ 2 µg/mL	2 µg/mL (≈ 3.46 µM)	0.08 µg/mL (≈ 0.138 µM)	0.4 µg/mL (≈ 0.691 µM)	50 µg/mL (≈ 86.4 µM)	0.08 µg/mL (≈ 0.138 µM)	≥ 50 µg/mL	AA (≥85% control of barley powdery mildew)	AA (≥85% control of cucumber powdery mildew)	A (from 70% to 84% control of wheat septoria leaf blotch)	D (<25% control of wheat fusarium head blight)	AA (≥85% control of wheat leaf rust)	AA (≥85% control of Asian soybean rust)
COc1ccc(F)cc1[C@H](Cn1c(=O)n([C@H](C)C(=O)NC(C)C)c(=O)c2c(C)c(-n3nccn3)sc21)OCCC#N [Compound I-198, (R)-2-(1-((R)-2-(2-cyanoethoxy)-2-(5-fluoro-2-methoxyphenyl)ethyl)-5-methyl-2,4-dioxo-6-(2H-1,2,3-triazol-2-yl)-1,4-dihydrothieno[2,3-d]pyrimidin-3 (2H)-yl)-N-isopropylpropanamide]	0.4 µg/mL (≈ 0.685 µM)	0.08 µg/mL (≈ 0.137 µM)	0.08 µg/mL (≈ 0.137 µM)	0.08 µg/mL (≈ 0.137 µM)	0.4 µg/mL (≈ 0.685 µM)	2 µg/mL (≈ 3.43 µM)	0.08 µg/mL (≈ 0.137 µM)	≥ 2 µg/mL	AA (≥85% control of barley powdery mildew)	AA (≥85% control of cucumber powdery mildew)	AA (≥85% control of wheat septoria leaf blotch)	C (from 25 to 49% control of wheat fusarium head blight)	AA (≥85% control of wheat leaf rust)	AA (≥85% control of Asian soybean rust)
